Assay results taken from US10259810B2, “N-sulfonylated pyrazolo[3,4-b]pyridin-6-carboxamides and method of use” (AbbVie S.à.r.l., priority 2015, dated 2019).

How the values were obtained:
ΔF508-CFTR [1] = target: T1, ΔF508-CFTR (Homo sapiens, UniProt P13569, DEL508-508); assay: CFTR cell surface levels using HRP-tagged ΔF508-CFTR expressing CFBE cells, in the presence of a co-corrector; assay type: cell-based; conditions: HRP-tagged ΔF508-CFTR CFBE cells, in the presence of 3 μM co-corrector; for EC50: read-out: EC50
T1 construct: host or cells: CFBE41o-, doxycycline-inducible
T1 sequence (P13569 with tags, fused parts or gaps DEL508-508): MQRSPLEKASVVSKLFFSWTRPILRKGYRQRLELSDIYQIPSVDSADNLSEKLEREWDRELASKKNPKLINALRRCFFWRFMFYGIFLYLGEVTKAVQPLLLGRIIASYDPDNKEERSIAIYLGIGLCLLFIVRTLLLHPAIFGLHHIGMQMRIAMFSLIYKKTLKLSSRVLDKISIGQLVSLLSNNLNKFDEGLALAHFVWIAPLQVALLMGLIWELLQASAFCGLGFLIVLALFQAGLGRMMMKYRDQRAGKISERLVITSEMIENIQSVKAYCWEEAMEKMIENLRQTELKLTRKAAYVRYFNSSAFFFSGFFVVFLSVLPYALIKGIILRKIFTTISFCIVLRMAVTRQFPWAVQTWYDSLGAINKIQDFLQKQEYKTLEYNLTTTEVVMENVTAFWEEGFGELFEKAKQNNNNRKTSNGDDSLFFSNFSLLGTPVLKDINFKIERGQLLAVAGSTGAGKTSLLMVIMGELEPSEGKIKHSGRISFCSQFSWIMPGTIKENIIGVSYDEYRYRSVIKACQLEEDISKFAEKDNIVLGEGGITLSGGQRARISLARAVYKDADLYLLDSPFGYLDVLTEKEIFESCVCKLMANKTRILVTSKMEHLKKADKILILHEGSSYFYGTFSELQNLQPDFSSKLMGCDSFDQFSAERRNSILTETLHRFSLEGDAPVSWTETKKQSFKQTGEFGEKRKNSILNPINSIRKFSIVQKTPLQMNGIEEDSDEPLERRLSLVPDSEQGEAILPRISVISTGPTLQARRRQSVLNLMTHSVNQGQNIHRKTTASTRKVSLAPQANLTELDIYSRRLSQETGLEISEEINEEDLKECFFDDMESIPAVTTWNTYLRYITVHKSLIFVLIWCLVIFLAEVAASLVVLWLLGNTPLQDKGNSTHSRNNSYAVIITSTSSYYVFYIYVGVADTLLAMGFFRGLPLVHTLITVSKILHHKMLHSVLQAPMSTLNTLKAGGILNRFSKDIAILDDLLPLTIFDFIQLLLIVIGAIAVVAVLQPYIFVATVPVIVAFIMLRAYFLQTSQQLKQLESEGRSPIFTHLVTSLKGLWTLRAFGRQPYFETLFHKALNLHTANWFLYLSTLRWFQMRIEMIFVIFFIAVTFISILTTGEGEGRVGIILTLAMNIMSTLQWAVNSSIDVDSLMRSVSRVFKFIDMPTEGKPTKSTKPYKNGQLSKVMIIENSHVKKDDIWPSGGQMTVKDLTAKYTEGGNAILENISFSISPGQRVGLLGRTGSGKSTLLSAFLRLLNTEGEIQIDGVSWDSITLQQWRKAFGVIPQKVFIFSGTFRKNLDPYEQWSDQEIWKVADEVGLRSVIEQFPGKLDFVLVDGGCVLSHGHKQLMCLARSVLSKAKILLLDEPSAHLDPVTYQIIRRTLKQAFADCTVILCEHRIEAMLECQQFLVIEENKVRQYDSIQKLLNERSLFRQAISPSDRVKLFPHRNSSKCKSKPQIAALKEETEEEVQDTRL
In short: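 Chemiluminescent read-out of surface HRP (15 min, dark) after PBS washes. Activity is normalized as 100×(sample−DMSO)/(3 μM co-corrector alone−DMSO).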

ΔF508-CFTR [2] = target: T1, ΔF508-CFTR; assay: CFTR cell surface levels using HRP-tagged ΔF508-CFTR expressing CFBE cells, intrinsic corrector capacity; assay type: cell-based; parameters: % Activation: concentration or dose not given beside the values; conditions: HRP-tagged ΔF508-CFTR expressing CFBE41o- cells, compound alone (intrinsic corrector capacity), 20 hours at 33° C.; for EC50: read-out: EC50
Description: Measuring CFTR Cell Surface Levels Using HRP-Tagged ΔF508-CFTR Expressing CFBE Cells
The HRP-tagged ΔF508-CFTR cell assay measures the expression of CFTR-ΔF508 at the plasma membrane. CFTR-ΔF508 has a folding defect leading to absence of protein at the plasma membrane. This assay is used to evaluate the capacity of compounds to increase the expression of CFTR-ΔF508 at the plasma membrane. The CFTR-ΔF508 is tagged with HRP (horse radish peroxidase enzyme) within the ECL4 (Extracellular loop 4) of CFTR (Phuan, P.-W. et al. Synergy-based small-molecule screen using a human lung epithelial cell line yields ΔF508-CFTR correctors that augment VX-809 maximal efficacy. Mol. Pharmacol. 86, 42-51 (2014)). When HRP-tagged ΔF508-CFTR is present at the plasma membrane, the HRP enzyme activity can be measured. The amount of CFTR-ΔF508 that can be rescued to the plasma membrane is correlated with the amount of functional enzyme that can be measured.
There are several ways to measure the capacity of compounds to rescue CFTR-ΔF508 to the plasma membrane; either compounds are evaluated on their own and the impact on plasma membrane levels is measured or compounds are evaluated in combination with a co-corrector, i.e. a compound that rescues CFTR-ΔF508 to the plasma membrane but rescue can be enhanced by addition of compounds due to a complementary mode of action.
Activity of Compounds for their Intrinsic Corrector Capacity:
For this purpose doxycycline-inducible ΔF508-CFTR-HRP expressing CFBE4lo− cells (obtained from Gergely Lukacs, McGill University) were maintained in MEM (Gibco; 31095) supplemented with 10% fetal bovine serum (Hyclone; SV30160.03) under puromycin (3 μg/mL) and G418 selection (0.2 mg/mL). For compound testing, cells were seeded at 4000 cells/well in white 384-well plates (Greiner; 781080) in 50 μL medium containing 0.5 μg/mL doxycycline and incubated for 68 hours at 37° C., 5% CO2. On day four, […] compounds diluted in PBS were added to the plates at a final DMSO concentration of 0.1%. All compound plates contained negative controls (DMSO) and positive controls ([…] corrector, 3-[(2R,4R)-4-({[1-(2,2-difluoro-1,3-benzodioxol-5-yl)cyclopropyl]carbonyl}amino)-7-methoxy-3,4-dihydro-2H-chromen-2-yl]benzoic acid). Cell plates were incubated at 33° C., 5% CO2 for 20 hours. On day five, the cells were washed five times with phosphate-buffered saline, and HRP activity was assayed by the addition of 50 μL/well of HRP substrate (SuperSignal™ West Pico Chemiluminescent Substrate, Thermo Scientific; 34080). After incubation for 15 minutes in the dark, chemiluminescence was measured using a plate reader (EnVision®, Perkin Elmer). Raw data were normalized to percentage activity values using the equation: 100×(Sample−Negative control)/(Positive control−Negative Control).

SMILES | % Activation (ΔF508-CFTR [1]) [%] | EC50 (ΔF508-CFTR [1]) [nM] | % Activation (ΔF508-CFTR [2]) [%] | EC50 (ΔF508-CFTR [2]) [nM]
Cc1nn(-c2cc(F)cc(F)c2)c2nc(C(=O)NS(C)(=O)=O)cc(-c3ccc(N4CCOCC4)cc3)c12 [Compound 23, 1-(3,5-difluorophenyl)-N-(methanesulfonyl)-3-methyl-4-[4-(morpholin-4-yl)phenyl]-1H-pyrazolo[3,4-b]pyridine-6-carboxamide] | 468.85 | 573 | 287.3 | 883
Cc1cc(C)cc(-n2nc(C)c3c(-c4ccc(N5CCOCC5)cc4)cc(C(=O)NS(C)(=O)=O)nc32)c1 [Compound 24, 1-(3,5-dimethylphenyl)-N-(methanesulfonyl)-3-methyl-4-[4-(morpholin-4-yl)phenyl]-1H-pyrazolo[3,4-b]pyridine-6-carboxamide] | 380.5 | 744 | 193.75 | 888
Cc1nn(-c2ccc(F)c(F)c2)c2nc(C(=O)NS(C)(=O)=O)cc(-c3ccc(N4CCOCC4)cc3)c12 [Compound 25, 1-(3,4-difluorophenyl)-N-(methanesulfonyl)-3-methyl-4-[4-(morpholin-4-yl)phenyl]-1H-pyrazolo[3,4-b]pyridine-6-carboxamide] | 437.17 | 640 | 247.23 | 997
Cc1nn(-c2cccc(C(F)(F)F)c2)c2nc(C(=O)NS(C)(=O)=O)cc(-c3ccc(N(C)C)cc3)c12 [Compound 26, 4-[4-(dimethylamino)phenyl]-N-(methanesulfonyl)-3-methyl-1-[3-(trifluoromethyl)phenyl]-1H-pyrazolo[3,4-b]pyridine-6-carboxamide] | 449.7 | 1550 | 202.25 | 1850
COc1ccc(-c2cc(C(=O)NS(C)(=O)=O)nc3c2c(C)nn3-c2cccc(C)c2)cc1 [Compound 27, N-(methanesulfonyl)-4-(4-methoxyphenyl)-3-methyl-1-(3-methylphenyl)-1H-pyrazolo[3,4-b]pyridine-6-carboxamide] | 365.2 | 714 | 145.5 | 1220
CCS(=O)(=O)NC(=O)c1cc(-c2ccc(OC)cc2)c2c(C)nn(-c3cccc(C)c3)c2n1 [Compound 28, N-(ethanesulfonyl)-4-(4-methoxyphenyl)-3-methyl-1-(3-methylphenyl)-1H-pyrazolo[3,4-b]pyridine-6-carboxamide] | 354.45 | 942 | 149.7 | 1220
CC(C)c1nn(-c2cccc(N3CCOCC3)c2)c2nc(C(=O)NS(C)(=O)=O)cc(-c3cnc(N(C)C)nc3)c12 [Compound 29, 4-[2-(dimethylamino)pyrimidin-5-yl]-N-(methanesulfonyl)-1-[3-(morpholin-4-yl)phenyl]-3-(propan-2-yl)-1H-pyrazolo[3,4-b]pyridine-6-carboxamide] | 591.4 | 824 | 328.4 | 645
CC(C)c1nn(-c2cccc(N3CCOCC3)c2)c2nc(C(=O)NS(C)(=O)=O)cc(-c3ccc(N(C)C)nc3)c12 [Compound 31, 4-[6-(dimethylamino)pyridin-3-yl]-N-(methanesulfonyl)-1-[3-(morpholin-4-yl)phenyl]-3-(propan-2-yl)-1H-pyrazolo[3,4-b]pyridine-6-carboxamide] | 423.27 | 204 | 203.4 | 318
CCS(=O)(=O)NC(=O)c1cc(-c2ccc(N(C)C)nc2)c2c(C(C)C)nn(-c3cccc(N4CCOCC4)c3)c2n1 [Compound 32, 4-[6-(dimethylamino)pyridin-3-yl]-N-(ethanesulfonyl)-1-[3-(morpholin-4-yl)phenyl]-3-(propan-2-yl)-1H-pyrazolo[3,4-b]pyridine-6-carboxamide] | 526 | 234 | 277.65 | 372
Cc1nn(-c2ccccc2)c2nc(C(=O)NS(C)(=O)=O)cc(-c3ccc(N(C)C)cc3)c12 [Compound 33, 4-[4-(dimethylamino)phenyl]-N-(methanesulfonyl)-3-methyl-1-phenyl-1H-pyrazolo[3,4-b]pyridine-6-carboxamide] | 315.6 | 471 | 109 | 2580
CCS(=O)(=O)NC(=O)c1cc(-c2ccc(N3CCOCC3)nc2)c2c(C(C)C)nn(-c3ccccc3)c2n1 [Compound 35, N-(ethanesulfonyl)-4-[6-(morpholin-4-yl)pyridin-3-yl]-1-phenyl-3-(propan-2-yl)-1H-pyrazolo[3,4-b]pyridine-6-carboxamide] | 509.7 | 348 | 265.23 | 542
COC1CN(c2cccc(-n3nc(C(C)C)c4c(-c5ccc(N6CCOCC6)cc5)cc(C(=O)NS(C)(=O)=O)nc43)c2)C1 [Compound 36, N-(methanesulfonyl)-1-[3-(3-methoxyazetidin-1-yl)phenyl]-4-[4-(morpholin-4-yl)phenyl]-3-(propan-2-yl)-1H-pyrazolo[3,4-b]pyridine-6-carboxamide] | 572.93 | 246 | 384.57 | 416
Cc1nn(-c2ccccc2)c2nc(C(=O)NS(C)(=O)=O)cc(-c3ccc(N4CCOCC4)nc3)c12 [Compound 37, N-(methanesulfonyl)-3-methyl-4-[6-(morpholin-4-yl)pyridin-3-yl]-1-phenyl-1H-pyrazolo[3,4-b]pyridine-6-carboxamide] | 457.25 | 1160 | 222.85 | 1660
CC(C)c1nn(C2CCC(F)(F)CC2)c2nc(C(=O)NS(C)(=O)=O)cc(-c3ccc(N4CCOCC4)cc3)c12 [Compound 38, 1-(4,4-difluorocyclohexyl)-N-(methanesulfonyl)-4-[4-(morpholin-4-yl)phenyl]-3-(propan-2-yl)-1H-pyrazolo[3,4-b]pyridine-6-carboxamide] | 447.7 | 581 | 182 | 850
CC(C)c1nn(C2CCCOC2)c2nc(C(=O)NS(C)(=O)=O)cc(-c3ccc(N4CCOCC4)cc3)c12 (centres unmarked) [Compound 39, N-(methanesulfonyl)-4-[4-(morpholin-4-yl)phenyl]-1-(oxan-3-yl)-3-(propan-2-yl)-1H-pyrazolo[3,4-b]pyridine-6-carboxamide] | 378.63 | 508 | 143.4 | 838
CCS(=O)(=O)NC(=O)c1cc(-c2ccc(N3CCOCC3)cc2)c2c(C(C)C)nn(C3CCCOC3)c2n1 (centres unmarked) [Compound 40, N-(ethanesulfonyl)-4-[4-(morpholin-4-yl)phenyl]-1-(oxan-3-yl)-3-(propan-2-yl)-1H-pyrazolo[3,4-b]pyridine-6-carboxamide] | 373.43 | 423 | 147.1 | 451
Cc1nn(-c2ccccc2)c2nc(C(=O)NS(C)(=O)=O)cc(-c3ccc(N4CC(N(C)C)C4)cc3)c12 [Compound 41, 4-{4-[3-(dimethylamino)azetidin-1-yl]phenyl}-N-(methanesulfonyl)-3-methyl-1-phenyl-1H-pyrazolo[3,4-b]pyridine-6-carboxamide] | 253.3 | 1140 | 52.497 | 817
